{
  "source": "patent US20150010644A1",
  "about": "“OXYGENATION OF THE MUCOSAL BARRIER BY ENTERAL ARTIFICIAL BLOOD TO PREVENT HYPOXIC BREAKDOWN OF THE MUCOSAL BARRIER” (THE REGENTS OF THE UNIVERSITY OF CALIFORNIA, priority 2011, published 2015)",
  "key": {"[1]": {"test_system": "MDA equivalents (TBARS) in jejunal homogenates", "test": "Thiobarbituric Acid Reactive Substances (TBARS) assay, rat SAO model", "type": "in vivo", "conditions": "SAO 30 min; lumenal injection 30 min prior", "protocol": "(§1) Male Wistar rats (250-300 g, Harlan Sprague Dawley Inc, Indianapolis, Ind.) were randomly assigned to each group (n=4 per group). Rats were kept on solid food restriction for 12 hours prior to surgery with water ad libitum. […] Sham groups were treated the same with the arteries separated but not ligated.\n(§2) Perfluorocarbon groups: Perfluorodecalin (PFC) (Sigma-Aldrich, St Louis, Mo.) with oxygen, previously bubbled into the solution for 10 min, was injected into the lumen of the intestine 30 min prior SHAM or SAO surgery (SHAM+PFC+O2, SAO+PFC+O2). PFC without oxygen bubbled into the solution was injected 30 min prior SHAM or SAO surgery (SHAM+PFC, SAO+PFC).\n(§3) ATP-MgCl2 groups: ATP-MgCl2 (Sigma-Aldrich), 25 mg/kg BW was injected in the lumen of the intestine 30 min prior to SHAM or SAO surgery (SHAM+ATP, SAO+ATP).\npH groups: Acidic saline (pH 5.5) injected in the lumen of the intestine 30 min prior SHAM surgery or HEPES buffer (20 mM) injected into the lumen of the intestine 30 min prior to SHAM or SAO surgery. […]\nTBARS assay: Thiobarbituric Acid Reactive Substances (TBARS) was measured using the TBARS assay kit (Zeptometrix, Buffalo, N.Y.) according to manufacturer's protocol. […] Samples were centrifuged at 3000 rpm for 15 min and the supernatant were read at 530/550 (Ex/Em)."}, "mucin2 [2]": {"test_system": "mucin2", "test": "Western blot for mucin2 of intestine homogenates, rat SAO model", "type": "in vivo", "conditions": "SAO 30 min, lumenal injection 30 min prior", "protocol": "as §1, §2, §3\n(§4) pH groups: Acidic saline (pH 5.5) injected in the lumen of the intestine 30 min prior SHAM surgery or HEPES buffer (20 mM) injected into the lumen of the intestine 30 min prior to SHAM or SAO surgery.\n(§5) Free radicals groups: The hydroxyl radical scavenger, dimethylthiourea (DMTU, Sigma-Aldrich; 2.0 mg/g BW) was injected in the lumen of the intestine 30 min prior to SAO (SAO+DMTU).\n(§6) Homogenates of intestine and lumenal contents: Jejunal segments were excised without removal of lumenal contents. For enzyme activity measurements, segments of intestine were homogenized with CelLytic™ (Sigma-Aldrich) without addition of protease inhibitors. For Western blot assays the intestine segments were homogenized as above in the presence of protease inhibitors (5 mM EDTA, 5 mM N-Ethylmaleimide, 25 mM iodoacetamide, 5 mM benzamidine, 300 mM acarbose, 5 mM 6-aminocaproic acid, 1 mM protease inhibitor cocktail, (Sigma-Aldrich). In separate experiments the small intestine of sham animals was excised, and the lumenal contents were flushed with 20 ml saline. Homogenates or lumenal contents were centrifuged (16,000 g for 15 min at 4° C.), the supernatant was collected and protein concentration was assessed with the bicinchoninic acid protein assay (Thermo Scientific).\n(§7) Western blot: 20 μg of tissue homogenate were separated by SDS-PAGE. Membranes were incubated with primary antibodies as follows: mucin2, mucin13 and trypsin 1:1000 (Santa Cruz Biotechnology), pancreatic amylase 1:1000 (GeneTex, San Antonio, Tex.), intra- and extra-cellular domains of E-cadherin and TLR4 1:1000 (Abcam), intracellular domain of TLR4 1:1000 (Invitrogen). Secondary antibodies were diluted 1:20000 (Santa Cruz Biotechnology) and detected with Super Signal West Pico (Thermo Scientific). The exposed x-ray films were scanned and label intensity was measured using digital gel analysis (NIH ImageJ software)."}, "[3]": {"test_system": "lectin staining (carbohydrate portion of mucin)", "test": "Lectin fluorescent staining (carbohydrate portion of mucin) of jejunal sections, rat SAO model", "type": "in vivo", "conditions": "SAO 30 min; lumenal injection 30 min prior", "protocol": "as §1, §2, §3, §4, §5\n(§8) Tissue cryosections: After euthanasia, jejunal sections (˜1 cm in length) were excised without removal of lumenal contents and suspended in Tissue-Tek O.C.T. Compound (Sakura Finetek, Torrance, Calif.), snap frozen in isopentane/liquid nitrogen, and stored at −80° C. for analysis. Cryosections (5 μm thickness) along the longitudinal axis of the villi were used throughout all experiments. Cryosections were fixed in 10% formalin solution and processed in a non-blinded fashion.\n(§9) Mucin and lectin staining: The simultaneous visualization of lectins and mucin was carried out using Lectin GS-II from Griffonia simplicifolia, Alexa Fluor® 594 Conjugate (EnzChek®, Invitrogen, Carlsbad, Calif.) and specific antibody for mucin2 with FITC secondary antibody 1:10000 (Santa Cruz Biotechnology) and nuclei counterstaining with DAPI. Sections were observed on an inverted microscope (20× objective) using the appropriate fluorescent filters."}, "shock": {"test_system": "shock", "conditions": "ATP infusion before and during shock, given prior to hemorrhage; cited from earlier work"}, "intestinal villi hypoxia": {"test_system": "intestinal villi hypoxia", "test": "Hypoxia staining (pimonidazole, Hypoxyprobe-1) of intestinal villi, rat SAO model", "type": "in vivo", "conditions": "SAO 30 min; lumenal injection 30 min prior", "protocol": "as §1, §2, §3, §4, §5\nHypoxia staining: In separate experiments tissue hypoxia was detected with Hypoxyprobe™-1 Kit (Natural Pharmacia International, Burlington, Mass., USA). This method utilizes a small molecular marker, pimonidazole, which after intravenous injection forms adducts with thiol containing proteins only in oxygen-starved cells. After general anesthesia as described above, pimonidazole-HCl (6 mg/100 g) was injected intravenously 30 min before SAO or SHAM; at 30 min the animal was euthanized and the jejuna section removed, embedded in O.C.T and frozen in liquid nitrogen. Then cryosections were immunostained using a rabbit antibody that binds to protein adducts of pimonidazole in hypoxic cells."}, "[4]": {"test_system": "trypsin activity in the intestinal wall", "test": "In-situ zymography for trypsin activity in jejunal cryosections, rat splanchnic arterial occlusion (SAO) model", "type": "in vivo", "conditions": "lumenal injection 30 min prior", "protocol": "as §1\nControl groups: Animals with saline injection into the lumen of the intestine, 3 ml/100 g Body Weight (BW), 30 min prior to SHAM or SAO surgery.\nas §2\nATP-MgCl2 groups: ATP-MgCl2 (Sigma-Aldrich), 25 mg/kg BW was injected in the lumen of the intestine 30 min prior to SHAM or SAO surgery (SHAM+ATP, SAO+ATP). […]\nAfter 30 min SAO or sham surgery, the animals were euthanized (Beuthanasia®; 0.22 ml/kg BW, IV).\nas §8\nIn-situ tissue zymography: In-situ zymography for trypsin activity in cryosections was assessed by measurement of fluorescence resulting from the proteolytic cleavage of the substrate (1 mM, Na-benzoyl-L-arginine-7-amido-methylcoumarin hydrochloride; Sigma-Aldrich) as described elsewhere with propidium iodine counterstaining (Sigma-Aldrich) (9). Slides were observed under an inverted microscope (20× and 60× objectives)."}, "mucin13": {"test_system": "mucin13", "test": "Western blot for mucin13 of intestine homogenates, rat SAO model", "type": "in vivo", "conditions": "SAO 30 min, lumenal injection 30 min prior", "protocol": "as §1, §2, §3, §4, §5, §6, §7"}, "[5]": {"test_system": "ATP concentration in intestine homogenates", "test": "ATP assay in intestine homogenates, rat SAO model", "type": "in vivo", "conditions": "lumenal injection 30 min prior", "protocol": "as §1, §2, §3, §4, §5\nATP assay: ATP concentrations in intestine homogenates were measured using ATP fluorometirc assay kit (BioVision, Mountain View, Calif.) according to manufacturer's protocol. Briefly jejuna sections were homogenized with perchloric acid (BioVision), centrifuged at 15,000×G for 5 min at 4° C. Samples were mixed with ATP reaction mix, incubated for 30 min protected from light and the fluorescence was measured with 535/587 (Ex/Em)."}, "mucin2 [6]": {"test_system": "mucin2", "test": "Mucin2 fluorescent staining of jejunal sections, rat SAO model", "type": "in vivo", "conditions": "SAO 30 min, lumenal injection 30 min prior", "protocol": "as §1, §2, §3, §4, §5, §8, §9"}},
  "data": [
    {"substance": "ATP-MgCl2", "values": [
      {"measurement": "levels of MDA equivalents (TBARS)", "setting": "[1]", "result": "on average lower levels of MDA equivalents compared to SHAM or SAO, but they were not significant"},
      {"measurement": "mucin2 protein levels (relative density, Western blot)", "setting": "mucin2 [2]", "result": "the same mucin2 and mucin13 protein levels as the sham"},
      {"measurement": "mucin2 protein levels (relative density, Western blot)", "setting": "mucin2 [2]; listed as ATP", "result": "preservation of mucin2 staining as well as protein levels of mucin2 and mucin13"},
      {"measurement": "lectin staining levels", "setting": "[3]", "result": "significantly lower as compared to the SHAM and SHAM-ATP-MgCl2"},
      {"measurement": "survival of animals", "setting": "shock", "result": "improves the survival of animals"},
      {"measurement": "hypoxia staining levels", "setting": "intestinal villi hypoxia", "result": "significantly high levels of hypoxia staining as compared to SHAM groups"},
      {"measurement": "trypsin activity in the intestinal wall", "setting": "[4]; SAO 30 min", "result": "Low levels of trypsin activity"},
      {"measurement": "trypsin activity in the intestinal wall", "setting": "[4]; SAO 30 min, listed as ATP", "result": "less trypsin activity in the wall as compared to the ischemic group with only lumenal saline"},
      {"measurement": "trypsin activity in the intestinal wall", "setting": "[4]; SHAM surgery", "result": "minimal trypsin activity"},
      {"measurement": "mucin13 protein levels / 17 kDa fragment (Western blot)", "setting": "mucin13", "result": "the same mucin2 and mucin13 protein levels as the sham"},
      {"measurement": "mucin13 protein levels / 17 kDa fragment (Western blot)", "setting": "mucin13; listed as ATP", "result": "preservation of mucin2 staining as well as protein levels of mucin2 and mucin13"},
      {"measurement": "ATP concentration in intestinal tissue homogenates", "setting": "[5]; SAO 30 min", "result": "significantly increased the ATP concentration"},
      {"measurement": "ATP concentration in intestinal tissue homogenates", "setting": "[5]; SHAM surgery", "result": "significantly increased the ATP concentration"},
      {"measurement": "mucin2 staining levels", "setting": "mucin2 [6]", "result": "significantly lower as compared to the SHAM group with saline but was not statistically different from SHAM-ATP-MgCl2"},
      {"measurement": "mucin2 staining levels", "setting": "mucin2 [6]; listed as ATP", "result": "preservation of mucin2 staining"}
    ]}
  ]
}
